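All cell lines were grown in 96-well plates and treated with compound for 48 hours. Here, GI50 denotes the concentration required for 50% inhibition of growth.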 Calls of active or inactive are those of the source. No stated cut-off is given here; in the data, active = GI50 up to about 1.1 µM and inactive = higher.
Columns and labels:
Assay in all cases: growth of human tumour cells (NCI), 48 h
UACC-62 = test system: UACC-62
PC-3 = test system: PC-3
A549 = test system: A549
CAKI-1 = test system: CAKI-1
SW-620 = test system: SW-620
NCI/ADR-RES = test system: NCI/ADR-RES
HCT-116 = test system: HCT-116
OVCAR-3 = test system: OVCAR-3
DU-145 = test system: DU-145
SNB-19 = test system: SNB-19
ACHN = test system: ACHN
NCI-H460 = test system: NCI-H460
HL-60 = test system: HL-60
M14 = test system: M14
CCRF-CEM = test system: CCRF-CEM
NCI-H522 = test system: NCI-H522
Malme-3M = test system: Malme-3M
K562 = test system: K562
EKVX = test system: EKVX
RXF 393 = test system: RXF 393

Measured: GI50

C=CCOc1cc(NC(=S)c2ccoc2C)ccc1OC
inactive: UACC-62 > 100 µM | PC-3 > 100 µM | A549 > 100 µM | CAKI-1 > 100 µM | SW-620 > 100 µM | NCI/ADR-RES > 100 µM | HCT-116 > 100 µM | OVCAR-3 > 100 µM | DU-145 > 100 µM | SNB-19 > 100 µM | ACHN > 100 µM | NCI-H460 > 100 µM | HL-60 > 100 µM | M14 > 100 µM | CCRF-CEM > 100 µM | NCI-H522 > 100 µM | Malme-3M > 100 µM | K562 > 100 µM | EKVX > 100 µM

COc1cccc(CCNc2c(C#N)c3n(c4ccccc4[n+]3C)c3ncccc23)c1
inactive: UACC-62 20.8 µM | PC-3 14.4 µM | A549 1.82 µM | CAKI-1 6.52 µM | SW-620 2.47 µM | NCI/ADR-RES 6.93 µM | RXF 393 13.5 µM | HCT-116 1.77 µM | OVCAR-3 19.6 µM | DU-145 5.42 µM | SNB-19 5.9 µM | ACHN 16.7 µM | NCI-H460 1.34 µM | HL-60 1.79 µM | M14 1.76 µM | NCI-H522 4.16 µM | Malme-3M 17.5 µM | K562 2.39 µM | EKVX 17.3 µM

N=C(N)NCCCCCCC(=O)NC(O)C(=O)NCCCCNCCCN (stereo unspecified)
inactive: UACC-62 711 µM | PC-3 > 750 µM | A549 473 µM | SW-620 > 750 µM | NCI/ADR-RES > 750 µM | RXF 393 700 µM | HCT-116 711 µM | OVCAR-3 474 µM | DU-145 > 750 µM | SNB-19 695 µM | ACHN > 750 µM | NCI-H460 718 µM | HL-60 > 750 µM | M14 > 750 µM | CCRF-CEM 515 µM | NCI-H522 479 µM | Malme-3M 582 µM | K562 551 µM | EKVX 643 µM

O=C1CC=C2C3CC4N(CCC45c4ccccc4N1C25)C/C3=C\CO (stereo unspecified)
inactive: UACC-62 > 100 µM | PC-3 > 100 µM | A549 > 100 µM | CAKI-1 > 100 µM | SW-620 > 100 µM | NCI/ADR-RES > 100 µM | HCT-116 > 100 µM | OVCAR-3 > 100 µM | DU-145 > 100 µM | SNB-19 > 100 µM | ACHN > 100 µM | NCI-H460 > 100 µM | HL-60 > 100 µM | CCRF-CEM > 100 µM | NCI-H522 > 100 µM | Malme-3M > 100 µM | K562 > 100 µM | EKVX > 100 µM

CCn1ncc2c(=O)n3ncn(-c4ccc(Br)cc4)c3nc21
inactive: UACC-62 > 100 µM | PC-3 > 100 µM | A549 > 100 µM | SW-620 > 100 µM | NCI/ADR-RES > 100 µM | RXF 393 > 100 µM | HCT-116 > 100 µM | OVCAR-3 > 100 µM | DU-145 > 100 µM | SNB-19 > 100 µM | ACHN > 100 µM | HL-60 > 100 µM | M14 > 100 µM | CCRF-CEM > 100 µM | NCI-H522 > 100 µM | Malme-3M > 100 µM | K562 > 100 µM | EKVX > 100 µM

COc1cc2c(cc1O)C1Cc3ccc(OC)c(O)c3C[N+]1(C)CC2 (stereo unspecified)
inactive: UACC-62 > 100 µM | PC-3 > 100 µM | A549 > 100 µM | CAKI-1 > 100 µM | SW-620 > 100 µM | NCI/ADR-RES > 100 µM | RXF 393 > 100 µM | HCT-116 > 100 µM | DU-145 > 100 µM | SNB-19 > 100 µM | ACHN > 100 µM | NCI-H460 > 100 µM | HL-60 > 100 µM | M14 > 100 µM | CCRF-CEM 45 µM | Malme-3M > 100 µM | K562 58.3 µM | EKVX > 100 µM

N#CCCN(CCC#N)c1ccc(/C=C2\N=C(c3ccccc3)N(NC(=O)c3ccncc3)C2=O)cc1
inactive: UACC-62 > 100 µM | PC-3 > 100 µM | A549 > 100 µM | SW-620 > 100 µM | NCI/ADR-RES > 100 µM | RXF 393 > 100 µM | HCT-116 > 100 µM | OVCAR-3 > 100 µM | DU-145 > 100 µM | SNB-19 > 100 µM | ACHN > 100 µM | NCI-H460 > 100 µM | HL-60 36.7 µM | M14 > 100 µM | K562 49.2 µM | EKVX > 100 µM

Cc1ccc(C2(c3ccc(C)c(O)c3C)CCN(C)CC2)c(C)c1O
inactive: UACC-62 > 100 µM | PC-3 35 µM | A549 > 100 µM | CAKI-1 > 100 µM | SW-620 88.1 µM | NCI/ADR-RES > 100 µM | RXF 393 78.5 µM | HCT-116 38.5 µM | OVCAR-3 54 µM | DU-145 > 100 µM | SNB-19 62.4 µM | ACHN > 100 µM | NCI-H460 15.7 µM | M14 45.8 µM | CCRF-CEM 60.1 µM | NCI-H522 > 100 µM | Malme-3M 52.7 µM | K562 84.7 µM | EKVX 44.4 µM

COc1ccc2c(c1OC)C(Br)CCC(Br)(Br)C2=O (stereo unspecified)
inactive: UACC-62 14.6 µM | PC-3 11.9 µM | A549 13.6 µM | CAKI-1 1.78 µM | SW-620 2.25 µM | NCI/ADR-RES 14.1 µM | RXF 393 3.91 µM | HCT-116 4.9 µM | OVCAR-3 15.8 µM | DU-145 12.4 µM | SNB-19 15.5 µM | ACHN 1.94 µM | NCI-H460 16 µM | HL-60 5.27 µM | M14 5.25 µM | NCI-H522 1.58 µM | Malme-3M 10.7 µM | K562 2.79 µM | EKVX 14.1 µM

O=[N+]([O-])c1cccnc1NCC1(CO)CCCC1
inactive: PC-3 19.1 µM | A549 35.2 µM | SW-620 25.7 µM | NCI/ADR-RES 20 µM | RXF 393 > 10 µM | HCT-116 26 µM | OVCAR-3 19.8 µM | DU-145 36 µM | SNB-19 56.4 µM | ACHN 27 µM | NCI-H460 22.5 µM | HL-60 22.4 µM | CCRF-CEM 29.4 µM | NCI-H522 21.7 µM | Malme-3M 20.7 µM | K562 18.5 µM | EKVX 27.8 µM

CC(Cc1ccc(O)cc1)NCC(O)c1ccc(O)c(O)c1 (stereo unspecified)
inactive: UACC-62 > 100 µM | PC-3 > 100 µM | A549 > 100 µM | CAKI-1 > 100 µM | SW-620 > 100 µM | NCI/ADR-RES > 100 µM | RXF 393 > 100 µM | HCT-116 > 100 µM | OVCAR-3 81.7 µM | DU-145 > 100 µM | SNB-19 > 100 µM | ACHN > 100 µM | NCI-H460 > 100 µM | M14 > 100 µM | CCRF-CEM > 100 µM | NCI-H522 > 100 µM | Malme-3M > 100 µM | K562 > 100 µM | EKVX > 100 µM
